Source: patent publication US8962018B2, “Oral formulation of anhydrous olanzapine form I” (Laboratorios Lesvi, S.L., priority 2005, dated 2015)

Legend:
Assay type in all cases: physicochemical
[1] = Stability of olanzapine Form I product under ambient storage conditions
Experimental: Said method includes in vacuo drying of the solvate at a pressure ranging between 1 and 40 mmHg, preferably between 1 and 20 mmHg, and a temperature controlled between 10 and 50° C., preferably between 20 and 40° C. Said method provides olanzapine Form I in a simple manner, with a high yield of the end product (olanzapine Form I) and with high chemical purity (level of total impurities less than 0.3% as determined by HPLC), together with a high polymorphic purity (Form II<2%).

[2] = X-ray diffraction study of polymorphic form after direct compression; details: after direct compression into tablets
[3] = Effect of aqueous medium used for the coating on stability of the solid form; details: aqueous medium used for preparation of the coating

Cc1cc2c(s1)Nc1ccccc1N=C2N1CCN(C)CC1 [olanzapine Form I, Olanzapine]
Stability and colour variations [1]: remains stable and does not undergo colour variations | Polymorphic form stability (formation of Form II) [2]: remains stable without any formation of detectable amounts of the polymorph Form II being observed | Related substances and polymorphic form after aqueous coating [3]: no increase of related substances nor change in the polymorphic form
